Target: T1, guinea pig liver transglutaminase (UniProt P08587)
T1 construct: guinea pig liver transglutaminase; from tissue; host or cells: guinea pig liver
T1 sequence (P08587 2-690 limits assumed): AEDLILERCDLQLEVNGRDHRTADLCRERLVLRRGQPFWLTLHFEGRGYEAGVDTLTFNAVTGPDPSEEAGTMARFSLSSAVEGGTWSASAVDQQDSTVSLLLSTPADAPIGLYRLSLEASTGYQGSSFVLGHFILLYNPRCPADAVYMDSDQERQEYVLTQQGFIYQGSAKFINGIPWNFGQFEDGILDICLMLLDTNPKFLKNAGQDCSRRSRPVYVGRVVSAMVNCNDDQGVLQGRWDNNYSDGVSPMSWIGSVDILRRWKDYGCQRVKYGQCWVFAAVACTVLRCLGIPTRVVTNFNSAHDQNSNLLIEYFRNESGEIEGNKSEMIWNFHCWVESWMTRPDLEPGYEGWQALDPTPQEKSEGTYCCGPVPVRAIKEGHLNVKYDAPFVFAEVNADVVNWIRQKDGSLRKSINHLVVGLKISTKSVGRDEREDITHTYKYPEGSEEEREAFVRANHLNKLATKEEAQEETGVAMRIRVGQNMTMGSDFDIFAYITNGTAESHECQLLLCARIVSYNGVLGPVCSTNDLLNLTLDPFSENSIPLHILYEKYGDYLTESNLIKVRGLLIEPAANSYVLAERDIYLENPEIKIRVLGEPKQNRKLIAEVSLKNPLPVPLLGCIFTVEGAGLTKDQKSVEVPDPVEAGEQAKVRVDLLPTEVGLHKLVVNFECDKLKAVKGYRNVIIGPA
Experiment: transglutaminase-competition assay (incorporation of [3H]putrescine into dimethylated casein)
Assay type: biochemical
Conditions: 0.1 μM [3H]putrescine; 30 mM tris(hydroxymethyl)aminomethane HCl pH 8.0; FIG. 2
Protocol: The transglutaminase competition assay was conducted in the presence of 30 mM tris(hydroxymethyl)aminomethane HCl, pH 8.3 (closed circles); 30 mM glycine, pH 9.25, (open circles); 30 mM glycine, pH 9.75 (open triangles); or 30 mM glycine, pH 10.0 (open squares). The data were obtained in the presence of increasing amounts of unlabeled putrescine.
The ability of transglutaminase to incorporate polyamines into a covalent conjugate with protein is the basis for an assay procedure based on competition between radiolabeled polyamine and unlabeled polyamine-containing standards or samples as the enzyme's substrates. However, because the affinity of transglutaminase for amine-containing substrates is relatively low the assay reaction could not be conducted under saturating substrate conditions and yield the level of sensitivity required to measure the polyamine content of biological samples. Therefore, assay conditions were developed which would make the protein acceptor substrate ratelimiting and allow the reaction to be run to completion, the radioactive and unlabeled polyamine competing for the completion, the radioactive and unlabeled polyamine competing for the limited number of conjugation sites. […] In all cases, the maximum incorporation was achieved by 30-60 minutes and was stable to another hour.
The reaction was initiated by the addition of transglutaminase solution (10 μl), incubated 60 minutes at 37° C. […] Triplicate aliquots (35 μl) of the solution were spotted on 1.5×8 cm instant thin-layer chromatography strips at a site 1.5 cm above the bottom edge which had previously received 60 μl of 20% trichloroacetic acid. Ascending chromatography was immediately carried out in 5% trichloroacetic acid containing 0.2 M KCl. After the solvent front had reached the top of the strip (ca. 10 minutes), a 2.5-cm segment from 1.5 cm above the 1 cm below the origin was cut out, dried, and the segment counted in 6 ml of scintillation liquid (toluene/Omnifluor, New England Nuclear, Boston).

50% displacement of [3H]putrescine incorporation, 800 pmol:
NCCCNCCCCNCCCN [spermine]
NCCCCNCCCN [spermidine, Spermidine]
NCCCCN [putrescine, Putrescine]
